In general, Cmax refers to the maximum level reached in the sampled fluid or tissue. Broadly, the half-life is how long it takes for the measured level to halve. The AUC(0-t) is the area under the concentration-time curve up to a stated or last time point. In general, Tmax refers to the time at which the peak concentration occurs. As a reminder, the bioavailability is dose-corrected exposure relative to a reference, in per cent. Read a high bioavailability as much systemic uptake. One may read the share remaining as what is left of the initial amount, in per cent. Lower therefore signals more turnover. The ΔTm is the shift of the melting midpoint relative to a reference. A word on the AUC(0-inf): it is total exposure, with the tail of the curve extrapolated. Lower therefore signals low exposure.

From ChEMBL document CHEMBL4393668, “Discovery and Characterization of XY101, a Potent, Selective, and Orally Bioavailable RORγ Inverse Agonist for Treatment of Castration-Resistant Prostate Cancer” (J Med Chem, 2019) come the findings set out here.

The target in data set [1] is T1, Nuclear receptor ROR-alpha (Homo sapiens, UniProt P35398).
T1 sequence (P35398 whole entry): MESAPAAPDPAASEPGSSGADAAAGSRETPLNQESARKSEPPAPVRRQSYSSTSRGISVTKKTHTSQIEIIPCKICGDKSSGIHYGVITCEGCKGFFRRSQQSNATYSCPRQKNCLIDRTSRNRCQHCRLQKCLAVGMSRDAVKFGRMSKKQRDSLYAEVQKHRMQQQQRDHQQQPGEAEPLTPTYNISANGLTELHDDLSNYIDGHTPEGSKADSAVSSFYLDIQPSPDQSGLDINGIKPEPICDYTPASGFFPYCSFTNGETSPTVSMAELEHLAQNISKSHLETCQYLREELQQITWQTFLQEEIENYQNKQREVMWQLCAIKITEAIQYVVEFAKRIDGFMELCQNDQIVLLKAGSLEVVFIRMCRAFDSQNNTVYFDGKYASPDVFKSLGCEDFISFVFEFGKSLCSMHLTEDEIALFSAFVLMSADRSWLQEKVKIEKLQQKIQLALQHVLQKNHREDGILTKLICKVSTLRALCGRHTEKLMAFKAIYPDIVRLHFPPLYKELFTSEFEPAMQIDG

Data set [2] in a line: in vivo. The conditions noted are these: Sprague-Dawley, rat, po, 10 mg/kg.
Data set [3] deals with T2, Nuclear receptor ROR-beta (Homo sapiens, UniProt Q92753).
T2 sequence (Q92753 whole entry): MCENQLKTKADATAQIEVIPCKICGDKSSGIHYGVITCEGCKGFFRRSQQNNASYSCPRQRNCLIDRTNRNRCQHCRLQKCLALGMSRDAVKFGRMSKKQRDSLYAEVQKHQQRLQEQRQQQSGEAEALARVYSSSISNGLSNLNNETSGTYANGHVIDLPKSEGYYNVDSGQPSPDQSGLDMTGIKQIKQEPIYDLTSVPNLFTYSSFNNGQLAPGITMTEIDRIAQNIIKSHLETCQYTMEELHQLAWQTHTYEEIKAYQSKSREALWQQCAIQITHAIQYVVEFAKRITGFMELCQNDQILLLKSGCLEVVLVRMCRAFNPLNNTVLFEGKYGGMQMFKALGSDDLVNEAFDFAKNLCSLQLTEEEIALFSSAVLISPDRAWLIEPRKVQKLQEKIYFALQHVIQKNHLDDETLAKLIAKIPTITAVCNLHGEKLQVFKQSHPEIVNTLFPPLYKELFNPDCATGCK

The nature of data set [4]: in vivo. The note with it: Sprague-Dawley, rat, po, 10 mg/kg. The source holds these as a separate data set.
Description: Half life in Sprague-Dawley rat at 10 mg/kg, po
Data set [5] in a line: in vivo. The note with it: Sprague-Dawley, rat, iv, 2 mg/kg.
The nature of data set [6]: in vivo. The conditions noted are these: Sprague-Dawley, rat, iv, 2 mg/kg. This is another data set of the same source.
Data set [7] in a line: in vivo. The conditions noted are these: Sprague-Dawley, rat, iv, 2 mg/kg. This is another data set of the same source.
A short description of data set [8]: in vivo. The note with it: Sprague-Dawley, rat, po, 10 mg/kg. The source holds these as a separate data set.
Data set [9] can be described thus: in vitro. The conditions noted are these: rat, liver microsomes.
Description: Stability in rat liver microsomes assessed as parent compound remaining at 10 uM measured after 60 mins by LC-MS/MS analysis
Data set [10] has as its target T3, Nuclear receptor ROR-gamma (Homo sapiens) (UniProt P51449).
T3 sequence (whole entry): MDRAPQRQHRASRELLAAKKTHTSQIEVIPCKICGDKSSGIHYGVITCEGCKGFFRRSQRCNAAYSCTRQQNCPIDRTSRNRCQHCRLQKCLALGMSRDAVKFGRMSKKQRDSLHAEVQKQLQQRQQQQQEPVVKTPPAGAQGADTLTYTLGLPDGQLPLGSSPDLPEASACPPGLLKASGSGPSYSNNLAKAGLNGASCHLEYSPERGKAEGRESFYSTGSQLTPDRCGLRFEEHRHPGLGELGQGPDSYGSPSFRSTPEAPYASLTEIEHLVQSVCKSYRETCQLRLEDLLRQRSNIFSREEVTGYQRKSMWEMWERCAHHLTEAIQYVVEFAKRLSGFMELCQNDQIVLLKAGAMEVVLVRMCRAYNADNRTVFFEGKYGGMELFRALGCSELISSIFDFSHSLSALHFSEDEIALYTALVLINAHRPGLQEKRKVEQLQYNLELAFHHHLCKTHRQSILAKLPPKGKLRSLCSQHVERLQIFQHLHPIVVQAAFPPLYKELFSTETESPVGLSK

Data set [11] deals with T4, Oxysterols receptor LXR-alpha (Homo sapiens, UniProt Q13133).
T4 sequence (Q13133 whole entry): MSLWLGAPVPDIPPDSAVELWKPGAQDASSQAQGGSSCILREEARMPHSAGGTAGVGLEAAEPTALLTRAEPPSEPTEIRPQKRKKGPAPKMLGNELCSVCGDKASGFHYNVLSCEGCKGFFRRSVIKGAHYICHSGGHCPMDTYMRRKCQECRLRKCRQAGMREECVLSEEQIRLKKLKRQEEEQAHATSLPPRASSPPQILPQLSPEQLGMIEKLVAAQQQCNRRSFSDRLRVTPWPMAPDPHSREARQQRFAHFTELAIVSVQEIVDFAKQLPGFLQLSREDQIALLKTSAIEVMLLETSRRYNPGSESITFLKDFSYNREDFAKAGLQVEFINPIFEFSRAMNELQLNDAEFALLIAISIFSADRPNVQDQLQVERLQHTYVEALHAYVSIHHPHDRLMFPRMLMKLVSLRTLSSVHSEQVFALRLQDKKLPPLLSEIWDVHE

The nature of data set [12]: in vivo. The conditions noted are these: Sprague-Dawley, rat, po, 10 mg/kg. The source holds these as a separate data set.
Data set [13] in a line: in vivo. The conditions noted are these: Sprague-Dawley, rat, iv, 2 mg/kg. The source holds these as a separate data set.
Description: Half life in Sprague-Dawley rat at 2 mg/kg, iv
Data set [14] is described as follows: in vivo. The conditions noted are these: Sprague-Dawley, rat, po, 10 mg/kg. The source holds these as a separate data set.
The conditions of data set [15]: rat, in vivo, iv, 2 mg/kg.
Description: Apparent volume of distribution in Sprague-Dawley rat at 2 mg/kg, iv
Data set [16] can be described thus: in vivo. The conditions noted are these: Sprague-Dawley, rat, iv, 2 mg/kg. The source holds these as a separate data set.
Data set [17] has as its target T5, Bile acid receptor (Homo sapiens, UniProt Q96RI1).
T5 sequence (Q96RI1 whole entry): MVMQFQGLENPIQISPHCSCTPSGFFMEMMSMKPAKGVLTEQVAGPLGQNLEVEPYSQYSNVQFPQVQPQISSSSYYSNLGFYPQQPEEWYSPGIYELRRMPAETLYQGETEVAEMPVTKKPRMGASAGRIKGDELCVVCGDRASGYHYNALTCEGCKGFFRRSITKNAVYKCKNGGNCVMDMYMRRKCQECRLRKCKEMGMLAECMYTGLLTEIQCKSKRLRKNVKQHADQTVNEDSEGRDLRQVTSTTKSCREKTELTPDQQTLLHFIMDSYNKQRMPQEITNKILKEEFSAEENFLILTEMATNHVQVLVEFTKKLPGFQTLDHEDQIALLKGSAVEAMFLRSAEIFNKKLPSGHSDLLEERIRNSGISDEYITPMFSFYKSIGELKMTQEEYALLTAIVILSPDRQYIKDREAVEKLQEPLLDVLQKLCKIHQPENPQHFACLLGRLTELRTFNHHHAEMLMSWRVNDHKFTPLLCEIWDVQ

With `CS(=O)(=O)c1ccc(CC(=O)Nc2ccc(-c3ccc(C(O)(C(F)(F)F)C(F)(F)F)cc3F)cc2)cc1`, the IC50 entry in [1], in data set [3], in [11] and in data set [17] was “Not Active” in each case. In addition, the Cmax in [2] came out at 1420 ng/mL; in data set [7], 980 ng/mL. Besides, the values for the half-life in data set [4] and in data set [13] were 8.67 h and 12.7 h, respectively. In addition, the AUC(0-t) in data set [5] was 7660 ng·h/mL; in data set [14] it was 21600 ng·h/mL. Moreover, in data set [6], the Tmax turned out to be 4.8 min. The compound further yielded a bioavailability in data set [8] of 52%. The compound further had an amount remaining at 1 h, 10 µM in data set [9] of 78%. Further, the ΔTm in data set [10] turned out to be 7.8 °C. For the same compound, the AUC(0-inf) in data set [12] was determined as 24500 ng·h/mL; in data set [16] it was 10400 ng·h/mL. For the same compound, the Vz in data set [15] came out at 3544 mg/kg.
